The text below walks through data of patent US20130158043A1, “PAK INHIBITORS FOR THE TREATMENT OF CANCER” (AFRAXIS, INC., priority 2011, published 2013).

In one assay the target is PAK3 (Homo sapiens, UniProt O75914). As to the kind of experiment: In vitro PAK inhibition assay (Z'-LYTE, SelectScreen Kinase Profiling). It counts as biochemical. The protocol: (§1) Compounds are screened in 1% DMSO (final) in the well. For 10 point titrations, 3-fold serial dilutions are conducted. All Peptide/Kinase Mixtures are diluted to a 2× working concentration in the appropriate Kinase Buffer
The 2×PAK3/Ser/Thr 20 mixture is prepared in 50 mM HEPES pH 7.5, 0.01% BRIJ-35, 10 mM MgCl2, 1 mM EGTA.
(§2) Add the following solutions to a well in a 384-well plate: 2.5 μL of 4× Test Compound OR (100 nL 100× Test Compound plus 2.4 μL kinase buffer) • 5 μL of 2× Peptide/Kinase (PAK) Mixture • 2.5 μL of 4×ATP Solution • 2. Shake the plate for 30-seconds • 3. Incubate the PAK Kinase Reaction at room temperature for 60-minutes • 4. Add 5 μL of Development Reagent Solution to each well • 5. Shake the plate for 30-seconds • 6. Incubate the Development Reaction for 60-minutes • 7. Determine the fluorescence using a fluorescence plate reader • 8. Analyze the fluorescence data
(§3) SelectScreen® Kinase Profiling Service uses XLfit from IDBS.

The target of another assay is PAK-4 (Homo sapiens, UniProt O96013). The assay is described as above. It counts as biochemical. The conditions noted are these: read-out: PAK4 IC50. The protocol: as §1
The 2X PAK-4/Ser/Thr 20 mixture is prepared in 50 mM HEPES pH 7.5, 0.01% BRIJ-35, 10 mM MgCl2, 1 mM EGTA. The final 10 μL Kinase Reaction consists of 0.1-0.75 ng PAK-4 and 2 μM Ser/Thr 20 in 50 mM HEPES pH 7.5, 0.01% BRIJ-35, 10 mM MgCl2, 1 mM EGTA. After the 1 hour Kinase Reaction incubation, 5 μL of a 1:256 dilution of Development Reagent A is added.
as §2, with “Bar-coded Corning, low volume NBS, black 384-well plate (Corning Cat. #3676) • 1. Add the” for “Add the”
SelectScreen® Kinase Profiling Service uses XLfit from IDBS. The dose response curve is curve fit to model number 205 (sigmoidal dose-response model).

A further assay addresses PAK1 (Homo sapiens, UniProt Q13153). The assay is described as above. It counts as biochemical. The protocol:
as §1
The 2×PAK1/Ser/Thr 19 mixture is prepared in 50 mM HEPES pH 7.5, 0.01% BRIJ-35, 10 mM MgCl2, 1 mM EGTA.
as §2, §3

The target of the next assay is PAK2 (PAK65) (Homo sapiens, UniProt Q13177). The description is as above. It counts as biochemical. The protocol:
as §1
The 2×PAK2 (PAK65)/Ser/Thr 20 mixture is prepared in 50 mM HEPES pH 7.5, 0.01% BRIJ-35, 10 mM MgCl2, 1 mM EGTA. The final 10 μL Kinase Reaction consists of 0.29-6 ng PAK2 (PAK65) and 2 μM Ser/Thr 20 in 50 mM HEPES pH 7.5, 0.01% BRIJ-35, 10 mM MgCl2, 1 mM EGTA.
as §2, §3

A further assay deals with T1, p-PAK1(S144) (Rattus norvegicus, UniProt P35465).
T1 construct: endogenous in cells; host or cells: RT4-D6P2T
Briefly: In vitro p-PAK1(S144) cellular HTRF assay. It is filed as cell-based. The conditions noted are these: cell line RT4-D6P2T, read-out: pPAK1(S144) IC50. The source says:
Compounds for treatment of cancer are subject to in vitro cellular HTRF assay for p-PAK1(S144). The cell line is RT4-D6P2T. The HTRF assay kits are obtained from Cisbio Bioassays, 135 South Road, Bedford, Mass. 01730, USA.

The structures appear in SMILES notation.

PAK3, sequence (O75914 whole entry): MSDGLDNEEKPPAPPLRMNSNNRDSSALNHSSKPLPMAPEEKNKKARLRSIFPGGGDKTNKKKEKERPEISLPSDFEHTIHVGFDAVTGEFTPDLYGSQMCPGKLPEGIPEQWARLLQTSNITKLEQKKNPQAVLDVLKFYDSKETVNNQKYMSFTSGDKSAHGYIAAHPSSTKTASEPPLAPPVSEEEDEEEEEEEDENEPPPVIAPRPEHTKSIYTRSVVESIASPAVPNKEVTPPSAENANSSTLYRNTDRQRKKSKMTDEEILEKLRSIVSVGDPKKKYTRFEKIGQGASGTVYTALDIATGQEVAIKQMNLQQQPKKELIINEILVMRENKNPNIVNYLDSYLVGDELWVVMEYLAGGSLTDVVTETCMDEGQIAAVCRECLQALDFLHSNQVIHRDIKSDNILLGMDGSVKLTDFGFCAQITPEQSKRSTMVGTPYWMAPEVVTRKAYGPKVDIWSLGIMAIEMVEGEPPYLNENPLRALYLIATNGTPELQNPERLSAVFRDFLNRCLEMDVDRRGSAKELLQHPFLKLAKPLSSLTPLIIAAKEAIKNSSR
PAK1, sequence (Q13153 whole entry): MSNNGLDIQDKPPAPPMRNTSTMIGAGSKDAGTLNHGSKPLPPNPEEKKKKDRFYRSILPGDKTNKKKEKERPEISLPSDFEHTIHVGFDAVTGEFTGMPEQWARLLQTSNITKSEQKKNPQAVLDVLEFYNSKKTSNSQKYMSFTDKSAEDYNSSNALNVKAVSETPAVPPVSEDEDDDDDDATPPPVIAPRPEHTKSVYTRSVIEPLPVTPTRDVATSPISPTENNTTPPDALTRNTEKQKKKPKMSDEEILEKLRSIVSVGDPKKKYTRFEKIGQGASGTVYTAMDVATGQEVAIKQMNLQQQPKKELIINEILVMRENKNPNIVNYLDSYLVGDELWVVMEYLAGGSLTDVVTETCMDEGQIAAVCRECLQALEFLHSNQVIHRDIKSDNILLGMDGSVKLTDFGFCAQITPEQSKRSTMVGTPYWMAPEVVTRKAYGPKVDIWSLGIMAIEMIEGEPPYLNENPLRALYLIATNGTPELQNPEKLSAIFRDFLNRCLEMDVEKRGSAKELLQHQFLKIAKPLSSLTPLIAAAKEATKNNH
PAK-4, sequence (O96013 whole entry): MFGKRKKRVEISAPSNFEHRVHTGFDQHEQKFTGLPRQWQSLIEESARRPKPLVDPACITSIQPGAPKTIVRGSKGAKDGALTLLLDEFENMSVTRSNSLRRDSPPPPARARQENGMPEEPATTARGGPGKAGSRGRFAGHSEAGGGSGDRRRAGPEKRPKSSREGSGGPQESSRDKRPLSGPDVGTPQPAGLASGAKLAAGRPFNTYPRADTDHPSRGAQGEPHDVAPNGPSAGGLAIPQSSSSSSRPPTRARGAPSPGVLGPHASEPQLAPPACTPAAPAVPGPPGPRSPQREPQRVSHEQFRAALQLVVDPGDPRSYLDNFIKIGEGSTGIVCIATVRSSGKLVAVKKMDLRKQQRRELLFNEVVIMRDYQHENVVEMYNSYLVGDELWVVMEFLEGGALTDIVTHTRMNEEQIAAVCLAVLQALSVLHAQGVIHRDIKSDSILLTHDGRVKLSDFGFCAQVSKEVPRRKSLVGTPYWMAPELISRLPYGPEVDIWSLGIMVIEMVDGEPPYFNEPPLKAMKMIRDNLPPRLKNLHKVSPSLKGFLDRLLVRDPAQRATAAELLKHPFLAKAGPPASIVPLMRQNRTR
PAK2 (PAK65), sequence (Q13177 whole entry): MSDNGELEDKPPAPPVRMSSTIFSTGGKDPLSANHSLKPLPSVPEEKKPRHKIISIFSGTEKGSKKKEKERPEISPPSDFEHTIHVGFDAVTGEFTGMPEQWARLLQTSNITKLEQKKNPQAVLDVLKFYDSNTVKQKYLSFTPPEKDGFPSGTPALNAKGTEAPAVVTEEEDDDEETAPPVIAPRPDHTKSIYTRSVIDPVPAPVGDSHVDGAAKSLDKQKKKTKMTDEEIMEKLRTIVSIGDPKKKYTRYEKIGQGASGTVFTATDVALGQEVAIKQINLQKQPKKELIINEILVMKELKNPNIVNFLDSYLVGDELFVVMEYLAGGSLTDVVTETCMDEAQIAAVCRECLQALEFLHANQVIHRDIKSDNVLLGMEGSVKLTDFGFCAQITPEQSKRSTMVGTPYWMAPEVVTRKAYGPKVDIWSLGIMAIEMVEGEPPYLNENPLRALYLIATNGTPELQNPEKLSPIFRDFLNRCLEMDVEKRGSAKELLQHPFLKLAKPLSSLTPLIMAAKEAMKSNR
T1 sequence (P35465 whole entry): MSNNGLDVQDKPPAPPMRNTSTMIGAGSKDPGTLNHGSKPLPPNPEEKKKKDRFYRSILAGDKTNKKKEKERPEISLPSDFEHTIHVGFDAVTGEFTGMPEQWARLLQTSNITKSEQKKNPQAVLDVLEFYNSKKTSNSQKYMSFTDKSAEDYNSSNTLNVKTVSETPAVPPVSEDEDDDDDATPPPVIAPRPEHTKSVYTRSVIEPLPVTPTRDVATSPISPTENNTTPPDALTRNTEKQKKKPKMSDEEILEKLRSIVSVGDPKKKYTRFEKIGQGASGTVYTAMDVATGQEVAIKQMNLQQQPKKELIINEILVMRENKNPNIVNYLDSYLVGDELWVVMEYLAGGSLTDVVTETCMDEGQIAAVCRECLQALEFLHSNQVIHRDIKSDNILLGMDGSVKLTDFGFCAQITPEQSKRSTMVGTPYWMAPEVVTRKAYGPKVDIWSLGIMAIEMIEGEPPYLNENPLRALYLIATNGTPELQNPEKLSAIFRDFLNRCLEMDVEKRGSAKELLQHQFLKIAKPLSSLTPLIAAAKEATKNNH

Broadly, the IC50 is the point on the concentration scale where inhibition reaches its midpoint. In the case of `CN1CCN(c2ccc(Nc3ncc4ccc(=O)n(Cc5ncsc5C5CC5)c4n3)cc2)CC1`, the IC50 at PAK3 fell in the range of 0.5 to 5 µM; on PAK-4, 0.5 to 5 µM; at PAK1 it was 0.05 to 0.5 µM; on PAK2 (PAK65), 0.5 to 5 µM.

Regarding `CCn1c(=O)c(-c2ccc(-c3ccnc(C)n3)cc2Cl)cc2cnc(Nc3ccc(C4CCN(C)CC4)cc3)nc21`, the IC50 at PAK3 was below 0.05 µM; on PAK-4, 0.5 to 5 µM; on PAK1 it was below 0.05 µM; against PAK2 (PAK65), below 0.05 µM.

On to `CCn1c(=O)c(-c2ccc(-c3cncc(C)n3)cc2Cl)cc2cnc(Nc3ccc(C4CCN(C)CC4)cc3)nc21`, for which the IC50 against PAK3 is below 0.05 µM; on PAK-4 it was 0.5 to 5 µM; at PAK1, below 0.05 µM; against PAK2 (PAK65) it was below 0.05 µM.

As to `CCn1c(=O)c(-c2ccc(-c3cccnc3C)nc2)cc2cnc(Nc3ccc(C4CCN(C)CC4)cc3)nc21`, the IC50 was above 5 µM against PAK3, at least 5 µM at PAK-4, above 5 µM on PAK1 and above 5 µM against PAK2 (PAK65).

With `CN(C)CCc1ccc(Nc2ncc3cc(-c4cc(N(C)C)c(-c5cccnc5)cc4Cl)c(=O)n(C)c3n2)cc1`, the concentration for half-maximal inhibition (IC50) on PAK3 was below 0.05 µM; on PAK-4, at least 5 µM; against PAK1 it was below 0.05 µM; against PAK2 (PAK65), 0.05 to 0.5 µM.

Take `Cc1cc(-c2nccnc2C)ccc1-c1cc2cnc(Nc3ccc(C4CCN(C)CC4)cc3)nc2n(C)c1=O`: the IC50 was 0.05 to 0.5 µM on PAK3, at least 5 µM at PAK-4, below 0.05 µM against PAK1 and below 0.05 µM against PAK2 (PAK65).

Consider `CN1CCN(c2ccc(Nc3ncc4cc(-c5ccc(-c6cccnc6F)cc5Cl)c(=O)n(C)c4n3)cc2)CC1`, for which the IC50 at p-PAK1(S144) was in the range of 0.05 to 0.5 µM.

Turning to `CCN1CCN(c2ccc(Nc3ncc4cc(-c5ccc(-c6cccnc6)cc5Cl)c(=O)n(CC)c4n3)cc2F)CC1` [drawing 727], the IC50 was below 0.05 µM at PAK3, at least 5 µM at PAK-4, below 0.05 µM at PAK1 and below 0.05 µM on PAK2 (PAK65).

In the case of `CCN1CCN(c2ccc(Nc3ncc4cc(-c5ccc(-c6cccnc6)cc5Cl)c(=O)n(CC)c4n3)cc2F)CC1` [drawing 756], the IC50 at p-PAK1(S144) is 0.05 to 0.5 µM.
